Measured values published in ChEMBL document CHEMBL3272085, “Quantitative structure-activity relationships. 2. A mixed approach, based on Hansch and Free-Wilson Analysis” (1976).

Legend:
[1] = organism: Rattus norvegicus; assay: Thyroxine-like activity in rat by antigoiter assay relative to control; type: functional
[2] = tested on: Staphylococcus aureus; assay: Antimicrobial activity against Staphylococcus aureus; type: functional

| Structure (SMILES) | Activity [1] [%] | log(activity) [1] | log(1/C) [2] |
| --- | --- | --- | --- |
| Cc1cc(C[C@H](N)C(=O)O)cc(C)c1Oc1ccc(O)c(C(C)C)c1 | 18 | 1.26 | – |
| CCCCCCCCCCCCCCCCCC[N+](C)(C)Cc1ccccc1 | – | – | 3.34 |
| CC(C)c1cc(Oc2c(Br)cc(C[C@H](N)C(=O)O)cc2Br)ccc1O | 450 | 2.65 | – |
| Cc1cc(C[C@H](N)C(=O)O)cc(I)c1Oc1ccc(O)c(I)c1 | 40 | 1.6 | – |
| N[C@@H](Cc1cc(I)c(Oc2ccc(O)cc2)c(I)c1)C(=O)O | 10 | 1 | – |
| CCCCCCCCCC[N+](C)(C)Cc1ccccc1 | – | – | 2.79 |
| CCCCCCCC[N+](C)(C)Cc1ccccc1Cl | – | – | 2.02 |
| CCCCCCCCCC[N+](C)(C)Cc1ccccc1Cl | – | – | 3.41 |
| N[C@@H](Cc1cc(I)c(Oc2ccc(O)c(O)c2)c(I)c1)C(=O)O | 1.5 | 0.18 | – |
| N[C@@H](Cc1cc(I)c(Oc2ccc(O)c(F)c2)c(I)c1)C(=O)O | 8 | 0.9 | – |
| N[C@@H](Cc1cc(I)c(Oc2ccc(O)c(Br)c2)c(I)c1)C(=O)O | 138 | 2.14 | – |
| Cc1cc(Oc2c(I)cc(C[C@H](N)C(=O)O)cc2I)ccc1O | 126 | 2.1 | – |
| CCc1cc(Oc2c(I)cc(C[C@H](N)C(=O)O)cc2I)ccc1O | 506 | 2.7 | – |
| CC(C)c1cc(Oc2c(I)cc(C[C@H](N)C(=O)O)cc2I)ccc1O | 868 | 2.94 | – |
| CC(C)(C)c1cc(Oc2c(I)cc(C[C@H](N)C(=O)O)cc2I)ccc1O | 120 | 2.08 | – |
| CC(C)Cc1cc(Oc2c(I)cc(C[C@H](N)C(=O)O)cc2I)ccc1O | 60 | 1.78 | – |

| Structure (SMILES) | Activity [1] [%] | log(activity) [1] | log(1/C) [2] |
| --- | --- | --- | --- |
| N[C@@H](Cc1cc(I)c(Oc2ccc(O)c(-c3ccccc3)c2)c(I)c1)C(=O)O | 32 | 1.51 | – |
| N[C@@H](Cc1cc(I)c(Oc2cc(F)c(O)c(F)c2)c(I)c1)C(=O)O | 1.8 | 0.26 | – |
| N[C@@H](Cc1cc(I)c(Oc2cc(Cl)c(O)c(Cl)c2)c(I)c1)C(=O)O | 0.9 | -0.05 | – |
| N[C@@H](Cc1cc(I)c(Oc2cc(Br)c(O)c(Br)c2)c(I)c1)C(=O)O | 10 | 1 | – |
| N[C@@H](Cc1cc(I)c(Oc2cc(F)c(O)c(I)c2)c(I)c1)C(=O)O | 28 | 1.45 | – |
| N[C@@H](Cc1cc(Br)c(Oc2ccc(O)c(Br)c2)c(Br)c1)C(=O)O | 44 | 1.64 | – |
| N[C@@H](Cc1cc(Br)c(Oc2ccc(O)c(I)c2)c(Br)c1)C(=O)O | 130 | 2.11 | – |
| N[C@@H](Cc1cc(Br)c(Oc2cc(Br)c(O)c(Br)c2)c(Br)c1)C(=O)O | 0.51 | -0.29 | – |
| N[C@@H](Cc1cc(Br)c(Oc2cc(I)c(O)c(I)c2)c(Br)c1)C(=O)O | 12.5 | 1.1 | – |
| Cc1cc(C[C@H](N)C(=O)O)cc(C)c1Oc1ccc(O)c(I)c1 | 5 | 0.7 | – |
| Cc1cc(Oc2c(C)cc(C[C@H](N)C(=O)O)cc2C)ccc1O | 3 | 0.48 | – |
| Cc1cc(Oc2c(C)cc(C[C@H](N)C(=O)O)cc2C)cc(C)c1O | 2 | 0.3 | – |
| N[C@@H](Cc1cc(Cl)c(Oc2cc(I)c(O)c(I)c2)c(Cl)c1)C(=O)O | 0.1 | -1 | – |
| N[C@@H](Cc1cc(I)c(Oc2ccc(O)c(Cl)c2)c(I)c1)C(=O)O | 27 | 1.43 | – |
| N[C@@H](Cc1cc(I)c(Oc2cc(I)c(O)c(I)c2)c(I)c1)C(=O)O [LEVOTHYROXINE] | 100 | 2 | – |
| N[C@@H](Cc1cc(I)c(Oc2ccc(O)c(I)c2)c(I)c1)C(=O)O [LIOTHYRONINE] | 545 | 2.74 | – |
